# Patent publication US8722580B2, “Agent for inhibiting cytokinin signaling” (Sumitomo Chemical Company, Limited, priority 2006, dated 2014)
# Key:
# rice [1] = assay: Rice tillering-promoting activity by seed treatment, direct seeding on dry field (Example 21); assay type: in vivo, Oryza sativa japonica Nipponbare; settings: seed treatment 0.25 mg/g seed; day 30 after sowing
# Procedure: (§1) Seeds of rice (Oryza sativa japonica Nipponbare) were treated with the chemical substance Ic3-1 (which inhibits intracellular signaling from a plant-derived cytokinin receptor of a cell) selected in Example 7, and were grown under direct seeding on dry field-conditions. Then, the number of tillers was examined, and thus a tillering-promoting activity of the chemical substance was evaluated.
# (§2) First, a Blank slurry solution containing 5% (v/v) Color Coat Red (manufactured by BECKER UNDERWOOD), 5% (v/v) CF-Clear (manufactured by BECKER UNDERWOOD) and 0.42% (v/v) Maxim-XL (manufactured by Syngenta) was prepared. In 1.3 ml of the Blank slurry solution, 12.5 mg of the chemical substance Ic3-3 was dissolved. Seeds were treated with the solution in an amount of 1.3 ml per 50 g of seeds (corresponding to 0.25 mg/g seed) using a Hege11 seed treating device (manufactured by Hans-Ulrich Hege).
# The, 20 seeds per pot of the treated seeds were sown in a 1/5000a Wagner pot at a depth of 1 cm and then cultured in a greenhouse. On day 10 after sowing, water was charged at a flooding depth of 5 cm and culture was continued. On day 30 after sowing, the number of tillers was examined.
# Arabidopsis thaliana = assay: Root growth-promoting activity test (Example 9); assay type: in vivo; settings: test final concentration 5 ppm (concentration with highest root growth rate); main root length vs control section, 22° C., 10 days
# Procedure, shortened: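 Arabidopsis seeds (10–20 per tube) were grown in Enshi standard medium containing the compound from DMSO at 0.001–10 ppm final, at 22° C in light for 10 days. Main root length was averaged over eight repeats and expressed as % of the control.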
# rice [2] = assay: Rice stand establishment-promoting activity by seed treatment, direct seeding on flooded field (Example 20); assay type: in vivo, Oryza sativa japonica Nipponbare; settings: for Stand establishment rate (%) on day 23 after sowing: Blank slurry 76.7
# Procedure: as §1, with “conditions.” for “on dry field-conditions.”, “a stand establishment rate” for “the number of tillers”, “rice stand establishment-promoting” for “tillering-promoting”
# as §2, with “solution, 6.25 mg,” for “solution,”, “12.5 mg, 25 mg or 50” for “12.5”, “(each corresponding” for “(corresponding”, “to 0.125 mg,” for “to”, “0.25 mg, 0.5 mg and 1” for “0.25”
# Then, a concrete pot (50 cm×50 cm) placed outdoors was flooded at a flooding depth of 5 cm, and 50 seeds per pot were sown. On day 23 after sowing, the number of seedlings whose leaf apex appeared on the water surface was examined. […] [Stand establishment rate (%)]=[Number of seedlings whose leaf apex appears on the water surface]/[Number of sown seeds]×100
# [3] = system: transformed cell TM182-p415CYC1; assay: Control growth test with transformed yeast cell TM182-p415CYC1 (toxicity to yeast); assay type: cell-based; settings: trans-zeatin 0.6 ppm; chemical substance 2 ppm; 30° C., 24 hours; turbidity OD 600
# Procedure, shortened: (§3)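 Yeast TM182-CRE1 (DOLU+Glu) or control TM182-p415CYC1 (DOLU+Gal), after 18 h preculture at 30° C and dilution to OD600=0.1, exposed to compound at 2 ppm plus trans-zeatin 0.6 ppm for 24 h at 30° C. OD600 vs DMSO control, blank-corrected; inhibition = 100 − relative growth %.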
# cytokinin receptor CRE1 = target: T1, cytokinin receptor CRE1 (Arabidopsis thaliana, UniProt Q9C5U0, S567G/T1018A); assay: Inhibition of intracellular signaling from plant-derived cytokinin receptor, growth of transformed yeast cell TM182-CRE1; assay type: cell-based; settings: trans-zeatin 0.6 ppm, chemical substance 2 ppm
# T1 construct: expressed in transfected cells; host or cells: Saccharomyces cerevisiae TM182 (sln1Δ) transformed with p415CYC-CRE1
# Procedure, shortened: as §3
# rice [4] = assay: Root growth-promoting activity using rice, soil drenching (Example 14); assay type: in vivo, Oriza sativa japonica Nipponbare; settings: soil drenched with 10 ppm solution, 500 μl per well
# Procedure: With respect to the chemical substance Ic3-3, a root growth promoting activity was measured using rice (Oriza sativa japonica Nipponbare).
# First, an acetone solution containing a predetermined concentration of the chemical substance was prepared and then 100-fold diluted with distilled water to 10 ppm (containing 1% acetone) to obtain a chemical substance solution. Seeds were immersed in water for 2 days to stimulate germination. The seeds were sowed in a 288-well plug tray (3 seeds per well), and then soil was drenched with the above chemical substance solution in an amount of 500 μl per well. After covering with soil, the plug tray was put in a plastic bag and then placed in an air-conditioned room (dark place at 30° C.) for 3 days. After removing the plastic bag from the plug tray, the plug tray was placed under light conditions of light/dark=16 h/8 h for 4 days while the bottom was irrigated at all times. Thus, rice seeds were cultivated to obtain grown rice. The resulting rice roots were washed and the total root length was analyzed using a root length measurement image analyzer WinRHIZO (manufactured by Regent Instruments).
# T1 sequence (Q9C5U0 24-1080 S567G/T1018A): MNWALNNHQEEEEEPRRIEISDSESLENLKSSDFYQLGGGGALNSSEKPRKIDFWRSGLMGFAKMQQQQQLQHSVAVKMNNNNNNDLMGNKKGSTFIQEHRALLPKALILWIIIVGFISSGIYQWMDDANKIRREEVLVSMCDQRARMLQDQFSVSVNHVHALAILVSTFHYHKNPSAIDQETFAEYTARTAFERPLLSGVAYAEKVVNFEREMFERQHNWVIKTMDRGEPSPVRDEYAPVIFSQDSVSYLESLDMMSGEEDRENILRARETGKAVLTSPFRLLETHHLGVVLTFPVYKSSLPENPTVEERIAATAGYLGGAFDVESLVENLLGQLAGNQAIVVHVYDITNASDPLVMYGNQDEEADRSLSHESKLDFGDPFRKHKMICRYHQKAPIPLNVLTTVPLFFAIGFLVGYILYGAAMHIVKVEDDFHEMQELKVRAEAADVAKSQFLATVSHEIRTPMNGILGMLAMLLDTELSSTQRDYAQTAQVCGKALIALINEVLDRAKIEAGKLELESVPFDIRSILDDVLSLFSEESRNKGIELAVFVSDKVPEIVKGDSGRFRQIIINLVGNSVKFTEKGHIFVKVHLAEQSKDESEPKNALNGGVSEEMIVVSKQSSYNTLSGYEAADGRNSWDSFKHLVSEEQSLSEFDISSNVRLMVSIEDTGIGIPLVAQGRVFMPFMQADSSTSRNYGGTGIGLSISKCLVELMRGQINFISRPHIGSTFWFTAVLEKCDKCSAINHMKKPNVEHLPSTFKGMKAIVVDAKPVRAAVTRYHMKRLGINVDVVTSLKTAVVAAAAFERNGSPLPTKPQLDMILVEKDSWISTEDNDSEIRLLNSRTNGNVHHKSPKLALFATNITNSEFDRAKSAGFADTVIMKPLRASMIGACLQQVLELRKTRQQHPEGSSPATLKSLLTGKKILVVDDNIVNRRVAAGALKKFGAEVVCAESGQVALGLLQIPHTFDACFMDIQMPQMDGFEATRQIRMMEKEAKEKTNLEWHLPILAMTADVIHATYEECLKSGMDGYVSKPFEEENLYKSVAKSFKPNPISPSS
smiles,measurement,setting,value
OCCCNc1nc(-c2ccccc2)c2cc(Cl)ccc2n1 [Ic3-3],number of tillers per stock compared with the Blank slurry-treated section,rice [1],the number of tillers per stock was increased
same,Root growth-promoting activity (root growth rate),Arabidopsis thaliana,163.4%
same,Stand establishment rate (%) on day 23 after sowing,rice [2]; seed treatment 0.125 mg/g seed,87.3%
same,Stand establishment rate (%) on day 23 after sowing,rice [2]; seed treatment 0.25 mg/g seed,82.7%
same,Stand establishment rate (%) on day 23 after sowing,rice [2]; seed treatment 0.5 mg/g seed,79.3%
same,Stand establishment rate (%) on day 23 after sowing,rice [2]; seed treatment 1 mg/g seed,84.0%
same,stand establishment rate compared with the Blank slurry-treated section,"rice [2]; seed treatment concentration 0.125 to 1 mg/g seed, day 23 after sowing",a stand establishment rate was increased
same,"Relative growth rate (%) in test section of test substance to control section, Transformed cell TM182-p415CYC1",[3],108.6%
same,"Relative growth rate (%) in test section of test substance to control section, Transformed cell TM182-CRE1","cytokinin receptor CRE1; 30° C., 24 hours, turbidity OD 600",1.4%
same,Activity (%) of test substance for inhibiting intracellular signaling from plant-derived cytokinin receptor of cell,cytokinin receptor CRE1; = 100 − relative growth rate of TM182-CRE1,98.6%
same,root growth compared with the control section (UTC),rice [4],root growth was remarkably promoted
same,total root length (image analyzer WinRHIZO),rice [4],an increase of the total root length
